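Following 48 hours of exposure in 96-well plates, responses at five concentrations were used to interpolate endpoints linearly. Abbreviation: GI50, concentration required for 50% inhibition of growth. TGI denotes the concentration required for complete inhibition of growth.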
Tests used:
Assay in all cases: NCI-60 cell line screen, 48 h
[1] = test system: 786-0 renal
[2] = test system: A549 NSCLC
[3] = test system: SF-295 CNS
[4] = test system: SNB-19 CNS
[5] = test system: A498 renal
[6] = test system: RXF 393 renal
[7] = test system: SK-MEL-5 melanoma
[8] = test system: M14 melanoma
[9] = test system: OVCAR-4 ovarian
[10] = test system: CAKI-1 renal

| SMILES | TGI [1] [µM] | TGI [2] [µM] | TGI [3] [µM] | TGI [4] [µM] | TGI [5] [µM] | TGI [6] [µM] | TGI [7] [µM] | TGI [8] [µM] | TGI [9] [µM] | TGI [10] [µM] | GI50 [1] [µM] | GI50 [2] [µM] | GI50 [3] [µM] | GI50 [4] [µM] | GI50 [10] [µM] | GI50 [5] [µM] | GI50 [6] [µM] | GI50 [7] [µM] | GI50 [9] [µM] | GI50 [8] [µM] |
| --- | --- | --- | --- | --- | --- | --- | --- | --- | --- | --- | --- | --- | --- | --- | --- | --- | --- | --- | --- | --- |
| CCOC(=O)C12CN(C34CC5CC(CC(C5)C3)C4)CC(C(=O)OCC)(C1=O)C(c1ccccc1)OC2c1ccccc1 (stereo not drawn) | > 100 | > 100 | > 100 | > 100 | > 100 | > 100 | > 100 | > 100 | > 100 | – | – | – | – | – | – | – | – | – | – | – |
| N/C(=N\N=C=C1C(=O)Nc2ccc(F)cc21)NO | > 100 | > 100 | > 100 | – | > 100 | > 100 | > 100 | > 100 | > 100 | > 100 | – | – | – | – | – | – | – | – | – | – |
| CCCCCNC(=O)C1C(=O)N(CCCCC)C(=O)/C1=N\N (stereo not drawn) | > 100 | > 100 | > 100 | > 100 | > 100 | – | > 100 | > 100 | > 100 | – | – | – | – | – | – | – | – | – | – | – |
| COC12c3ccccc3-c3ccccc3C1[C@@H](C(=O)O)[C@H]2C(=O)O (stereo partly drawn) | > 10 | – | > 10 | > 10 | > 10 | > 10 | > 10 | > 10 | > 10 | > 10 | – | – | – | – | – | – | – | – | – | – |
| O=S(=O)(Nc1ccc2ccc3cccc4ccc1c2c34)c1ccccc1 | > 100 | > 100 | > 100 | > 100 | – | > 100 | > 100 | > 100 | > 100 | > 100 | – | – | – | – | – | – | – | – | – | – |
| Nc1ncn([C@@H]2C=C(CO)C(O)C2O)c(=O)n1 (stereo partly drawn) | > 100 | > 100 | > 100 | > 100 | > 100 | – | > 100 | > 100 | > 100 | > 100 | – | – | – | – | – | – | – | – | – | – |
| Cc1cc2c(C)nn(Cc3ccc(Cl)cc3Cl)c2c(C#N)c1C | > 100 | > 100 | > 100 | > 100 | – | > 100 | – | – | – | – | – | – | – | – | – | – | – | – | – | – |
| COc1ccc(C(=O)Nc2ccccc2)cc1[N+](=O)[O-] | > 100 | > 100 | > 100 | > 100 | > 100 | > 100 | > 100 | > 100 | – | > 100 | – | – | – | – | – | – | – | – | – | – |
| COc1ccc2c(c1)C(=O)/C(=C/c1ccc(OCC(=O)c3ccc(Cl)cc3)cc1)O2 | 47.2 | > 100 | > 100 | > 100 | > 100 | 42.4 | 59.3 | – | 36.7 | 90.1 | 21.7 | 31.4 | 30.9 | 48.2 | 16.4 | 48.9 | 17.3 | 17.2 | 13.3 | – |
| Clc1ccc(C2=NN(c3ccccc3)C3c4cc(Br)ccc4OCC23)cc1 (stereo not drawn) | > 100 | > 100 | > 100 | > 100 | > 100 | > 100 | > 100 | – | – | – | – | – | – | – | – | – | – | – | – | – |
| COC1C2c3ccccc3C(C#N)(Cc3ccc4c(c32)OCO4)N1C(=O)c1ccccc1 (stereo not drawn) | > 100 | – | > 100 | > 100 | – | > 100 | 31.5 | > 100 | – | – | – | – | – | – | – | – | – | – | – | – |
| Cc1ccc(C)c(NC(=O)CCC(=O)CC(=O)C(C)(C)C)c1 | > 100 | > 100 | – | > 100 | > 100 | > 100 | > 100 | > 100 | > 100 | > 100 | – | – | – | – | – | – | – | – | – | – |
| COC(=O)CC(CC(=O)C(=O)OC)C(=O)OC (stereo not drawn) | > 100 | > 100 | > 100 | > 100 | > 100 | > 100 | > 100 | > 100 | – | > 100 | – | – | – | – | – | – | – | – | – | – |
| C=C1C(=O)C23C(O)C1CCC2C12CO[C@]3(O)[C@@H](O)C1C(C)(C)CCC2O (stereo partly drawn) | 25.1 | 34.6 | 30.6 | 28.6 | 36.5 | 20.6 | 37 | 24.1 | – | 28.5 | – | – | – | – | – | – | – | – | – | – |
| CN(C)c1ccc(N=C(C#N)c2nc(N)nc(N3CCOCC3)n2)cc1 | > 100 | > 100 | 31.3 | > 100 | – | 70.1 | > 100 | > 100 | > 100 | > 100 | 35.6 | 38.8 | 15.9 | > 100 | 39.9 | – | 27.5 | 40.4 | 46.6 | > 100 |
| COc1cccc(C2C3=C(COC3=O)N(CCO)c3cc4c(cc32)CCC4)c1 (stereo not drawn) | 10.8 | – | 0.543 | 0.321 | 0.0483 | – | 0.436 | 0.208 | > 50 | > 50 | 0.0731 | 0.0982 | 0.0148 | 0.0468 | 0.132 | 0.0154 | – | 0.0204 | 0.114 | 0.0358 |
| COc1ccc(C=O)c(N(C)C(=O)C(C)(C)C)c1 | > 100 | > 100 | > 100 | > 100 | > 100 | > 100 | > 100 | > 100 | > 100 | – | – | – | – | – | – | – | – | – | – | – |
| Oc1ccc(-c2nc(-c3ccc(F)cc3)c(-c3ccncc3)[nH]2)cc1 | > 100 | > 100 | > 100 | > 100 | 48.5 | 43.2 | 29.6 | 20.3 | > 100 | – | 12.5 | 25.8 | 20.2 | 35.3 | – | 16.7 | 8.92 | 4.73 | 16.5 | 4.02 |
| NC(=NCc1ccccc1)N/N=C\c1ccnc2ccccc12 | 29.9 | 36.9 | 32.2 | 36.9 | 25.2 | – | 20 | 17.5 | 33 | – | – | – | – | – | – | – | – | – | – | – |
| COC(=O)C12C3C=CC(O3)C1C1C=CC2O1 (stereo not drawn) | > 100 | > 100 | > 100 | > 100 | – | > 100 | > 100 | > 100 | – | – | – | – | – | – | – | – | – | – | – | – |
| O=[N+]([O-])c1ccc(N=Nc2c(O)[nH]c3ccc(Br)cc23)c([N+](=O)[O-])c1 | 13.2 | 20.4 | 14.8 | 17.1 | – | 15.3 | 3.49 | 21.2 | – | 27.2 | – | – | – | – | – | – | – | – | – | – |
| Fc1cccc(C=NC23CC4CC(CC(C4)C2)C3)c1 | > 100 | – | > 100 | > 100 | > 100 | > 100 | – | > 100 | > 100 | > 100 | – | – | – | – | – | – | – | – | – | – |

Reference: PubChem BioAssay (NCI)
